In patent publication US20240190950A1, “METHOD OF TREATING DISEASES USING GREMLIN1 ANTAGONISTS” (SHANGHAI JIAO TONG UNIVERSITY, priority 2021, published 2024):

Key:
Type in all cases: cell-based, human
[1] = system: GREM1 expression in LNCaP cells; assay: Regulation of GREM1 expression by AR agonist/antagonist in LNCaP cells (q-PCR, immunoblot, luciferase reporter); conditions: R1881 1 nM, enzalutamide 10 μg/ml
Description: AR plays a central role in PCa. To assess the relationship between Gremlin1 and AR signaling, we performed further IHC staining for Gremlin1 and PSA, a classic downstream target of AR, on sections of CRPC specimens. […] In addition, we detected a significant increase of GREM1 in a castration resistant LNCaP cell line (termed as LNCaP R), which was derived from xenograft LNCaP tumors implanted in castrated mice, compared to a control LNCaP cell line generated from xenografts in intact mice (FIG. 2A). We then asked whether the expression of GREM1 was regulated by AR signaling. We utilized an AR expressing lentivirus or the CRISPR/Cas9 method to achieve AR upregulation (FIG. 2B) or knockout in the LNCaP PCa cell line (FIG. 2D). […] This conclusion was supported by AR agonist R1881 and antagonist Enzalutamide treatment experiments (FIG. 1D, 1E).
Additionally, we carried out a luciferase reporter assay.

[2] = system: FGFR1/MEK/ERK signaling pathway; assay: FGFR1/MEK/ERK phosphorylation in PCa cell lines (immunoblotting)
Description: In order to test whether Gremlin1 promoted the FGFR-MAPK signaling, we first performed analysis of the expression levels of the four FGFRs in CRPC patients. […] We treated LNCaP and PC3 with GREM1 in different concentrations (1 ng/ml, 10 ng/ml, 100 ng/ml) and examined phosphorylation levels of FGFR1, MEK and ERK.
(§1) MAPK signaling can be activated through many membrane receptors besides FGFR. To test whether the activation of MAPK pathway by GREM1 was via FGFR, we constructed a FGFR1 knockout LNCaP subline by the CRISPR/Cas9 method. […] To further test whether the tumor promoting effect of GREM1 was through FGFR, we utilized small molecule inhibitors of FGFR or EGFR.
14E3 was tested to target GREM1 in human PCa.

LNCaP cells = assay: GREM1-promoted PCa cell proliferation and sphere formation with FGFR1/MEK inhibitors or BMP4
Description: as §1

Compound | GREM1 mRNA transcription [1] | GREM1 promoter driven luciferase activity [1] | Gremlin1 protein level [1] | activation of MAPK/FGFR1 signaling axis by GREM1 in presence of inhibitor ([2]; inhibitor 1 μM, Gremlin1 100 ng/ml, PC3 and LNCaP-resistance cells) | proliferation promoting role of GREM1 (LNCaP cells) | sphere-formation promoting role of GREM1 (LNCaP cells) | time of highest MAPK signaling activation ([2]; FGF 20 ng/ml, PC3 and LNCaP cells, quickly diminished afterwards)
CNC(=O)c1ccc(N2C(=S)N(c3ccc(C#N)c(C(F)(F)F)c3)C(=O)C2(C)C)cc1F [enzalutamide] | significantly increased | enhanced | significantly increased |  |  |  | 
C[C@]1(O)CC[C@H]2[C@@H]3CCC4=CC(=O)CCC4=C3C=C[C@@]21C [R1881] | downregulated | greatly inhibited | downregulated |  |  |  | 
CCN1CCN(c2ccc(Nc3cc(N(C)C(=O)Nc4c(Cl)c(OC)cc(OC)c4Cl)ncn3)cc2)CC1 [BGJ398, reference compound] |  |  |  | attenuated | significantly compromised | significantly compromised | 
FGF1: known FGFR1 ligand used as a positive control |  |  |  |  |  |  | 10 min
